Measurements taken from PMC9391200, “Charge-based interactions through peptide position 4 drive diversity of antigen presentation by human leukocyte antigen class I molecules” (PNAS Nexus, 2022).

Experiments:
HLA-A*24:02 [1] = biological target: T1, HLA-A*24:02 (Homo sapiens, UniProt P04439, D101N/D140Y/D185E/E176V/E190D/F33S/G103R/G107R/I119L/I121M/I306V/K335N/L105A/L180Q/L300P/N151K/N90K/Q86E/Q94H/R106L/R138H/R89G/T104I/T345S/V100E/W191G/Y123F); assay: Peptide stability assay on WT HLA-A*24:02 (urea denaturation, W6/32 ELISA); type: binding; details: biotinylated A*24:02 refolded with excess peptide, incubated with 0, 2, 4 or 6 M urea, relative to reference peptide TYTQDFNKF (stability index 100%), result in words
Excerpt: (§1) All HLA-A*02:01- and A*24:02-restricted peptides used in the study were purchased from Genscript at purity of > 80% with quality control by reverse-phase HPLC and mass spectrometry (SC1208). Recombinant HLA-A*02:01 and HLA-A*24:02 molecules were made and re-folded as described elsewhere ([83]). Conformation-dependent W6/32 antibodies used in these assays were produced in vitro from hybridoma cell lines (Integra, Chur, Switzerland). All A*02:01 and A*24:02 binding assays were done as described previously ([83]). In brief, streptavidin donor beads (PerkinElmer, 6760002) and acceptor beads (PerkinElmer, 6762001) conjugated to W6/32 were incubated with A*02:01 or A*24:02 that had been preincubated with varying peptide concentrations. Plates were read by PerkinElmer EnVision and data was analyzed using GraphPad Prism. Peptide stability assays were performed as described previously ([84]). In brief, biotinylated A*02:01 and A*24:02 molecules were refolded with excess peptide then incubated with 0, 2, 4, or 6 M urea. Nondenatured peptides were detected by W6/32 staining using ELISA as described previously ([85]). Stability was calculated as a percentage relative to a reference known binder peptide with an assigned stability index of 100%. […] was used as the reference peptide for A*02:01 and TYTQDFNKF was used as the reference peptide for A*24:02 in both the binding and stability assays.

HLA-A*24:02 [2] = biological target: T1, HLA-A*24:02; assay: Peptide binding assay on WT HLA-A*24:02 (W6/32 donor/acceptor bead assay); details: recombinant HLA-A*24:02 preincubated with varying peptide concentrations; streptavidin donor beads and W6/32-conjugated acceptor beads; EnVision read-out; reference peptide TYTQDFNKF; result in words
Excerpt: as §1

Sequence | HLA-A*24:02/peptide complex stability (HLA-A*24:02 [1]) | peptide binding to WT A*24:02 (HLA-A*24:02 [2])
KFKDNVILL [p1 lysine-substituted …] | increased | 
QFKDNVILL [native A*24:02-restricted peptide with subdominant anchors F2 and LΩ] |  | relatively poor binding
TFSDEAVHF |  | weak-binding
VYGFVRACL |  | strong-binding
